Experimental data: US20080076824A1, “Compounds That Inhibit Replication Of Human Immunodeficiency Virus” (priority 2004, published 2008)
≈ marks a conversion by molar mass, not a printed value. Like-named read-outs stand apart in the source and are kept apart here. Non-standard residues stand in square brackets, D forms with d. Residues, ends and D or L forms follow the SMILES beside them. Sar = CNCC(=O)O

Columns and labels:
[1] = Cytotoxicity (CC50) in C8166 cells; assay type: cell-based; conditions: human, C8166 cells
[2] = system: HIV-2(ROD); assay: microbe, parasite or virus in culture
Procedure: (§1) MT-4, C8166 or CEM cells (4 to 5×10^5 cells per ml) were suspended in fresh culture medium (RPMI-1640 medium supplemented with 10% fetal bovine serum (FBS) (BioWittaker Europe, Verviers, Belgium), 2 mM L-glutamine and […] NaHCO3). Subsequently, the cells were infected with HIV-1 (IIIB) or HIV-2(ROD) at ˜100 CCID50 (1 CCID50 being the dose infective for 50% of the cell cultures) per ml of cell suspension. Then, 100 μl of the infected cell suspension were transferred to 96-well microplate wells, mixed with 100 μl of the appropriate (5-fold) dilutions of the test compounds and further incubated at 37° C. After 4 to 5 days, giant cell formation was recorded microscopically in the CEM and C8166 cell cultures. The MT-4 cell cultures were treated with trypan blue and the number of viable cells was determined.

[3] = system: HIV-1 (IIIB); assay: microbe, parasite or virus in culture; conditions: Human immunodeficiency virus 1, IIIB
Procedure: as §1

[4] = system: HIV-2 (ROD); assay: microbe, parasite or virus in culture; assay type: cell-based
Procedure: Human T-lymphocytic CEM cells (4.5×10^5 cells per ml) were suspended in fresh cell culture medium and infected with HIV-1 (IIIB and NL4.3) or HIV-2 (ROD or EHO) at 100 CCID50 (1 CCID50 being the virus dose infective for 50% of the cell cultures) per ml of cell suspension. Then, 100 μl of the infected cell suspension were transferred to microplate wells, mixed with 100 μl of appropriate (freshly prepared) dilutions of the test compounds (i.e., at final concentrations of […]), and were further incubated at 37° C. After 4 to 5 days, giant cell formation was recorded microscopically in the CEM cell cultures. […] (See Table 1).
as §1

[5] = system: HIV-1 (IIIB); assay: microbe, parasite or virus in culture; conditions: Human immunodeficiency virus 1, IIIB, CCRF-CEM
[6] = Cytotoxicity (CC50) in MT-4 cells; assay type: cell-based; conditions: human, MT-4 cells
[7] = system: human PBMC; assay: Mitogenic activity assay, [3H]dThd incorporation in human PBMC with or without PHA; assay type: cell-based; conditions: concentrations up to 200 μg/ml, absence of PHA
Procedure: The mitogenic activity assay was conducted as follows. Human PBMC were isolated from buffy coats and brought in RPMI-1640 cell culture medium supplemented with 10% FCS and 2 mM L-glutamine. The cell cultures were exposed to several concentrations of the test compounds for 3 days in the absence or presence of PHA (phytohemagglutinin) (Murex Biotech Ltd., Dartford, UK) at 2 μg/ml. Subsequently, 0.25 μCi [CH3^−3H]dThd was added and, after 20 hr incubation at 37° C., the cells were precipitated in the presence of 10% TCA and the precipitate was washed twice with 10% TCA, twice with 5% TCA and once with 70% ethanol. The precipitate, containing [^3H]DNA, was then examined for radioactivity in a liquid scintillation counter.

[8] = in vitro; conditions: human
[9] = Stability of synthetic compounds (no method given); assay type: physicochemical
[10] = system: Herpes simplex virus-2 (G); conditions: HEL; reduces virus-induced cytopathogenicity by 50%
[11] = system: Vesicular stomatitis virus; conditions: HEL; reduces virus-induced cytopathogenicity by 50%
[12] = system: Herpes simplex virus-1 TK^− KOS ACV^r; conditions: HEL; reduces virus-induced cytopathogenicity by 50%
[13] = system: Vaccinia virus; conditions: HEL; reduces virus-induced cytopathogenicity by 50%
[14] = system: Herpes simplex virus-1 (KOS); conditions: HEL; reduces virus-induced cytopathogenicity by 50%
[15] = system: HIV-2 (EHO)
Procedure: (§2) Human T-lymphocytic CEM cells (4.5×10^5 cells per ml) were suspended in fresh cell culture medium and infected with HIV-1 (IIIB and NL4.3) or HIV-2 (ROD or EHO) at 100 CCID50 (1 CCID50 being the virus dose infective for 50% of the cell cultures) per ml of cell suspension. Then, 100 μl of the infected cell suspension were transferred to microplate wells, mixed with 100 μl of appropriate (freshly prepared) dilutions of the test compounds (i.e., at final concentrations of […]), and were further incubated at 37° C. After 4 to 5 days, giant cell formation was recorded microscopically in the CEM cell cultures.

[16] = system: HIV-1 (NL4.3); conditions: read-out: EC50 HIV-1 NL3.4; CEM cell cultures, syncytia formation
Procedure: as §2

[17] = system: HIV-1 (IIIB); conditions: read-out: EC50 HIV-1 IIIB; CEM cell cultures, syncytia formation, Table 1
[18] = system: Parainfluenza-3 virus; assay: organism not typed; conditions: Vero, read-out: Minimum inhibitory concentration Parainfluenza-3 virus
[19] = system: Herpes simplex virus-2 (G); assay: microbe, parasite or virus in culture; conditions: Human alphaherpesvirus 2, HEL, read-out: Minimum inhibitory concentration Herpes simplex virus-2 (G)
[20] = system: Reovirus-1; assay: organism not typed; conditions: Vero, read-out: Minimum inhibitory concentration Reovirus-1
[21] = system: Vesicular stomatitis virus; assay: microbe, parasite or virus in culture; conditions: HeLa, read-out: Minimum inhibitory concentration Vesicular stomatitis virus
[22] = system: Respiratory syncytial virus; assay: microbe, parasite or virus in culture; conditions: human respiratory syncytial virus, HeLa, read-out: Minimum inhibitory concentration Respiratory syncytial virus
[23] = system: Herpes simplex virus-1 (KOS); assay: microbe, parasite or virus in culture; conditions: Human alphaherpesvirus 1, HEL, read-out: Minimum inhibitory concentration Herpes simplex virus-1 (KOS)
[24] = system: Coxsackie virus B4; assay: Antiviral activity in Vero cell cultures, Coxsackie virus B4; assay type: cell-based; conditions: Enterovirus B, B4, reduces virus-induced cytopathogenicity by 50%, read-out: Minimum inhibitory concentration Coxsackie virus B4
Procedure: (§3) The cytotoxicity and antiviral activity of various concentrations of G-NH2 and GPG-NH2 were evaluated in cell cultures that were infected with various types of viruses. Conventional host cell culture, viral infection, and infectivity analysis for each different type of cell and virus were followed. Compounds that were known to inhibit replication of the particular types of viruses analyzed were used as controls.

[25] = system: Coxsackie virus B4; assay: Antiviral activity in HeLa cell cultures, Coxsackie virus B4; assay type: cell-based; conditions: Enterovirus B, B4, reduces virus-induced cytopathogenicity by 50%, read-out: Minimum inhibitory concentration Coxsackie virus B4
Procedure: as §3

[26] = system: Vaccinia virus; assay: microbe, parasite or virus in culture; conditions: Orthopoxvirus vaccinia, HEL, read-out: Minimum inhibitory concentration Vaccinia virus
[27] = system: Vesicular stomatitis virus; assay: microbe, parasite or virus in culture; conditions: HEL, read-out: Minimum inhibitory concentration Vesicular stomatitis virus
[28] = system: Punta Toro virus; assay: microbe, parasite or virus in culture; conditions: Vero, read-out: Minimum inhibitory concentration Punta Toro virus
[29] = system: Herpes simplex virus-1 TK^− KOS ACV^r; assay: microbe, parasite or virus in culture; conditions: Human alphaherpesvirus 1, HEL, read-out: Minimum inhibitory concentration Herpes simplex virus-1 TK^− KOS ACV^r
[30] = system: Sindbis virus; assay: microbe, parasite or virus in culture; conditions: Vero, read-out: Minimum inhibitory concentration Sindbis virus
[31] = system: HIV (SF2 virus); assay: HIV infectivity assay, SF2-infected H9 cells, reverse transcriptase (RT) quantification in supernatant; assay type: cell-based
[32] = Human immunodeficiency virus 2, C8166, read-out: EC50 (C8166) HIV-2 (ROD), Table 19
[33] = Human immunodeficiency virus 2, C8166, read-out: EC50 (C8166) HIV-2 (ROD), Table 20
[34] = Human immunodeficiency virus 2, MT4, read-out: EC50 (MT-4) HIV-2 (ROD), Table 19
[35] = Human immunodeficiency virus 2, MT4, read-out: EC50 (MT-4) HIV-2 (ROD), Table 20
[36] = C8166, read-out: EC50 (C8166) HIV-1 (IIIB), Table 19
[37] = C8166, read-out: EC50 (C8166) HIV-1 (IIIB), Table 20
[38] = MT4, read-out: EC50 (MT-4) HIV-1 (IIIB)
[39] = MT4, read-out: EC50 (MT-4) HIV-1(IIIB)
[40] = Human immunodeficiency virus 2, CCRF-CEM, Table 19, read-out: EC50 (CEM) HIV-2 (ROD)
[41] = read-out: EC50 (CEM) HIV-1 (IIIB), Table 19
[42] = read-out: EC50 (CEM) HIV-1(IIIB), Table 20

## CN1C(=O)C(C)(C)NNC1=S [Formula K]
[1]
  CC50: 896 ± 265 µM
[2]; [32]
  EC50: > 580 µM
[2]; [33]
  EC50: > 230 µM
[2]; [34]
  EC50: > 580 µM
[2]; [35]
  EC50: > 1000 µM
[3]; [36]
  EC50: 346 µM
[3]; [37]
  EC50: 289 ± 81 µM
[3]; [38]
  EC50: > 580 µM
[3]; [39]
  EC50: > 1000 µM
[4]; [40]
  EC50: 65 ± 18 µM
[5]; [41]
  EC50: 115 µM
[5]; [42]
  EC50: 115 µM
[6]
  CC50: 906 ± 179 µM
[7]
  mitogenic activity against human PBMCs: non-mitogenic
[8]
  CC50 at 96 hr: ≥ 1150 µM

## COC(N)C(N)=O (stereo not drawn) [Formula G, alpha-methoxyglycinamide]
[9]
  stability: more stable than alpha-hydroxyglycinamide

## Nc1nc2c(ncn2COCCO)c(=O)[nH]1 [ACG, reference compound]
[10]
  Minimum inhibitory concentration Herpes simplex virus-2 (G): 0.0768 µg/mL (≈ 0.341 µM)
[11]
  Minimum inhibitory concentration Vesicular stomatitis virus: >400 µg/mL
[12]
  Minimum inhibitory concentration Herpes simplex virus-1 TK^− KOS ACV^r: 9.6 µg/mL (≈ 42.6 µM)
[13]
  Minimum inhibitory concentration Vaccinia virus: >400 µg/mL
[14]
  Minimum inhibitory concentration Herpes simplex virus-1 (KOS): 0.0768 µg/mL (≈ 0.341 µM)

## CNCC(=O)N1CCC[C@H]1C(=O)NCC(N)=O [SAR-PG-NH2, sarcosinylprolylglycinamide] (H-[Sar]-Pro-Gly-NH2)
[4]; 2 (ROD)
  EC50: 35 ± 9.8 µM
[8]
  EC50: > 1500 µM
[15]
  EC50: 56 µM
[16]
  EC50: 49 µM
[17]
  EC50: 31 ± 4.9 µM

## NC(=O)CC[C@H](N)C(=O)N1CCC[C@H]1C(=O)NCC(N)=O [Q-PG-NH2, glutaminylprolylglycinamide] (H-Gln-Pro-Gly-NH2)
[4]; 2 (ROD)
  EC50: 89 µM
[8]
  EC50: > 1500 µM
[15]
  EC50: 82 µM
[16]
  EC50: 265 µM
[17]
  EC50: 86 µM

## NC(=O)c1ncn([C@@H]2O[C@H](CO)[C@@H](O)[C@H]2O)n1 [Ribavirin]
[18]
  EC50: 48 µg/mL (≈ 197 µM)
[19]
  EC50: > 400 µg/mL
[20]
  EC50: 16 µg/mL (≈ 65.5 µM)
[21]
  EC50: 9.6 µg/mL (≈ 39.3 µM)
[22]
  EC50: 16 µg/mL (≈ 65.5 µM)
[23]
  EC50: 48 µg/mL (≈ 197 µM)
[24]
  EC50: > 400 µg/mL
[25]
  EC50: 48 µg/mL (≈ 197 µM)
[26]
  EC50: 240 µg/mL (≈ 983 µM)
[27]
  EC50: > 400 µg/mL
[28]
  EC50: 48 µg/mL (≈ 197 µM)
[29]
  EC50: 80 µg/mL (≈ 328 µM)
[30]
  EC50: > 400 µg/mL

## CN1C(=O)C2(CCCCC2)NNC1=S [Formula M]
[1]
  CC50: 488 ± 3.3 µM
[2]; [32]
  EC50: 480 µM
[2]; [33]
  EC50: > 190 µM
[2]; [34]
  EC50: > 480 µM
[2]; [35]
  EC50: > 900 µM
[3]; [36]
  EC50: > 480 µM
[3]; [37]
  EC50: > 190 µM
[3]; [38]
  EC50: > 480 µM
[3]; [39]
  EC50: > 900 µM
[4]; [40]
  EC50: 48 ± 14 µM
[5]; [41]
  EC50: 97 ± 42 µM
[5]; [42]
  EC50: 97 ± 42 µM
[6]
  CC50: 455 ± 4.6 µM
[7]
  mitogenic activity against human PBMCs: non-mitogenic
[8]
  CC50 at 96 hr: ≥ 930 µM

## Nc1nc2c(ncn2COC(CO)CO)c(=O)[nH]1 [DHPG, reference compound]
[10]
  Minimum inhibitory concentration Herpes simplex virus-2 (G): 0.0192 µg/mL (≈ 0.0752 µM)
[11]
  Minimum inhibitory concentration Vesicular stomatitis virus: >400 µg/mL
[12]
  Minimum inhibitory concentration Herpes simplex virus-1 TK^− KOS ACV^r: 0.48 µg/mL (≈ 1.88 µM)
[13]
  Minimum inhibitory concentration Vaccinia virus: 60 µg/mL (≈ 235 µM)
[14]
  Minimum inhibitory concentration Herpes simplex virus-1 (KOS): 0.0038 µg/mL (≈ 0.0149 µM)

## CC(C)C(N)C(=O)NC(O)C(N)=O [Formula Y, N-L-Valyl-α-Hydroxyglycinamide]
[9]
  stability: stable
[31]; 25 μM
  HIV replication at 25 μM: neglible levels
[31]; Human immunodeficiency virus 1, H9, 264 h, RT quantification, day 11, read-out: IC50
  IC50: ~16 µM
